The target of one experiment is T1, Aurora B (Homo sapiens, UniProt Q96GD4).
T1 construct: Active Aurora B enzyme (recombinant residues 1-344)
Nature of the experiment: Aurora B enzyme inhibition (time-resolved fluorescence, histone H3 peptide). Type of experiment: biochemical. The note with it: 1 mM ATP. In a few lines:
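Recombinant Aurora B (residues 1-344) with GST-INCENP phosphorylated biotinylated histone H3 (1-21) peptide at 1 mM ATP in HEPES pH 7.4 with MgCl2, orthovanadate and Triton X-100 for 1 h. After EDTA stop, the phosphopeptide was detected by TR-FRET (Eu-cryptate anti-phospho-H3 / SA-APC, 665/615 nm ratio). IC50 from an exponential fit.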

In the next experiment the target is T2, Aurora A (Homo sapiens, UniProt O14965).
T2 sequence (O14965 1-403): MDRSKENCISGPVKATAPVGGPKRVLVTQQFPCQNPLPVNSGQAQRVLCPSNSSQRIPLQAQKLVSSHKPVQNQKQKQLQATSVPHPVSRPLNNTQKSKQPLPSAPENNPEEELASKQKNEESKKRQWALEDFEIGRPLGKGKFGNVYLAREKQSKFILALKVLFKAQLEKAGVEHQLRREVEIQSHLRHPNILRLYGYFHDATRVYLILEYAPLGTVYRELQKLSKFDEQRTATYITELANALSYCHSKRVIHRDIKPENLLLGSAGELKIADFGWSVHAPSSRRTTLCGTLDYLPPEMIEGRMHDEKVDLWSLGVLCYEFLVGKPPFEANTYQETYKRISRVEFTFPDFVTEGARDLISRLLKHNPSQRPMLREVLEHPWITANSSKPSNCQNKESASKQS
The experiment can be described thus: Aurora A enzyme inhibition (time-resolved fluorescence, STK substrate-2). Format: biochemical. The conditions noted are these: 1 mM ATP. In a few lines:
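Active enzyme incubated 1 h with biotinylated STK substrate-2, 1 mM ATP and inhibitor in Hepes pH 7.4 with MgCl2, orthovanadate and Triton X-100. EDTA stop; phosphopeptide detected by Eu-cryptate anti-phospho-STK/SA-XL665 TR-FRET (665/615 nm ratio); IC50 by exponential fit.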

SMILES strings stand for the structures. A value given as a limit tells only on which side of the number the result lay.

For orientation: Ki means a dissociation constant, usually derived from enzyme kinetics or from competition with a known ligand. A high value points to a looser hold on the target.

T1 sequence (Q96GD4 whole entry, the tested form may be a part): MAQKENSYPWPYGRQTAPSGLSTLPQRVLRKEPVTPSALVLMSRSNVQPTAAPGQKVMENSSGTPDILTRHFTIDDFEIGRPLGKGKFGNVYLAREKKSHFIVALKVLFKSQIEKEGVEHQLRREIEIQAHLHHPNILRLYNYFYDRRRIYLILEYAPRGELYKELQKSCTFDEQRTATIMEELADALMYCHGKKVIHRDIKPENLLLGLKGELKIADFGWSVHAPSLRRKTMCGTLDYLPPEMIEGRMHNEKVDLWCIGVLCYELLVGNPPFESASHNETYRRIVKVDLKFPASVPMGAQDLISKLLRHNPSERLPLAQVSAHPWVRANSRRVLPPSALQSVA
T1 sequence (Q9NQS7 826-918 partner limits assumed): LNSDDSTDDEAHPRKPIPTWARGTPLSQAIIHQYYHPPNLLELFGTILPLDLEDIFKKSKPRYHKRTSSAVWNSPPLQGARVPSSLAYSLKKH

For the compound `Cn1cc(Nc2ncc(C(F)(F)F)c(N[C@@H]3[C@@H]4CC[C@@H](C4)[C@@H]3C(N)=O)n2)cn1.Cn1cc(Nc2ncc(C(F)(F)F)c(N[C@H]3[C@H]4CC[C@H](C4)[C@H]3C(N)=O)n2)cn1` (mixture of isomers) [Example 20, (1S,2S,3R,4R)-3-{[2-[(1-methyl-1H-pyrazol-4-yl)amino]-5-(trifluoromethyl)pyrimidin-4-yl]amino}bicyclo[2.2.1]heptane-2-carboxamide and (1R,2R,3S,4S)-3-{[2-[(1-methyl-1H-pyrazol-4-yl)amino]-5-(trifluoromethyl)pyrimidin-4-yl]amino}bicyclo[2.2.1]heptane-2-carboxamide], the inhibitory constant (Ki) on Aurora B and at Aurora A was less than 100 nM each time.

Regarding `Cn1cc(Nc2ncc(Br)c(Nc3ccccc3C3(O)CCC3)n2)cn1` [Example 132, 1-[2-({5-bromo-2-[(1-methyl-1H-pyrazol-4-yl)amino]pyrimidin-4-yl}amino)phenyl]cyclobutanol], the Ki at Aurora B and at Aurora A was less than 100 nM in each case.

In the case of `CC(O)Cn1cc(Nc2ncc(C(F)(F)F)c(NC3C4C=CC(C4)C3C(N)=O)n2)cn1` (mixture of isomers) [Example 19, (1R,2R,3S,4S)-3-{[2-({1-[(2R)-2-hydroxypropyl]-1H-pyrazol-4-yl}amino)-5-(trifluoromethyl)pyrimidin-4-yl]amino}bicyclo[2.2.1]hept-5-ene-2-carboxamide and (1S,2S,3R,4R)-3-{[2-({1-[(2R)-2-hydroxypropyl]-1H-pyrazol-4-yl}amino)-5-(trifluoromethyl)pyrimidin-4-yl]amino}bicyclo[2.2.1]hept-5-ene-2-carboxamide], the Ki on Aurora B and on Aurora A was less than 100 nM in each case.

In the case of `Cc1cccc(Cn2cc(Nc3ncc(Cl)c(N[C@H]4[C@@H](C(N)=O)[C@@H]5C=C[C@H]4C5)n3)cn2)c1` [Example 178, (1S,2S,3R,4R)-3-[(5-chloro-2-{[1-(3-methylbenzyl)-1H-pyrazol-4-yl]amino}pyrimidin-4-yl)amino]bicyclo[2.2.1]hept-5-ene-2-carboxamide], the inhibitory constant (Ki) at Aurora B and on Aurora A was less than 100 nM each time.

As for `NC(=O)[C@@H]1[C@H](Nc2nc(Nc3cnn(Cc4ccc5ccccc5c4)c3)ncc2Cl)[C@H]2C=C[C@@H]1C2` [Example 179, (1S,2S,3R,4R)-3-[(5-chloro-2-{[1-(2-naphthylmethyl)-1H-pyrazol-4-yl]amino}pyrimidin-4-yl)amino]bicyclo[2.2.1]hept-5-ene-2-carboxamide], the inhibition constant (Ki) on Aurora B and at Aurora A was less than 100 nM in each case.

Regarding `NC(=O)[C@@H]1[C@H](Nc2nc(Nc3cnn(Cc4ccccc4Cl)c3)ncc2Br)[C@H]2C=C[C@@H]1C2` [Example 171, (1S,2S,3R,4R)-3-[(5-bromo-2-{[1-(2-chlorobenzyl)-1H-pyrazol-4-yl]amino}pyrimidin-4-yl)amino]bicyclo[2.2.1]hept-5-ene-2-carboxamide], the Ki at Aurora B and on Aurora A was less than 100 nM in each case.

On to `NC(=O)[C@@H]1CCC[C@@H]1Nc1nc(Nc2cnn(C3CCNCC3)c2)ncc1Cl.NC(=O)[C@H]1CCC[C@H]1Nc1nc(Nc2cnn(C3CCNCC3)c2)ncc1Cl` (mixture of isomers) [Example 136, (1S,2R)-2-[(5-chloro-2-{[1-(piperidin-4-yl)-1H-pyrazol-4-yl]amino}pyrimidin-4-yl)amino]cyclopentanecarboxamide and (1R,2S)-2-[(5-chloro-2-{[1-(piperidin-4-yl)-1H-pyrazol-4-yl]amino}pyrimidin-4-yl)amino]cyclopentanecarboxamide], for which the inhibition constant (Ki) on Aurora B and on Aurora A was less than 100 nM each time.

`CCn1cc(Nc2ncc(Cl)c(NC3C4CCC(O4)C3C(N)=O)n2)cn1` (racemic) [Example 142, (1S,2R,3S,4R)-3-({5-chloro-2-[(1-ethyl-1H-pyrazol-4-yl)amino]pyrimidin-4-yl}amino)-7-oxabicyclo[2.2.1]heptane-2-carboxamide and (1R,2S,3R,4S)-3-({5-chloro-2-[(1-ethyl-1H-pyrazol-4-yl)amino]pyrimidin-4-yl}amino)-7-oxabicyclo[2.2.1]heptane-2-carboxamide]: the inhibition constant Ki on Aurora B and at Aurora A was less than 100 nM in each case.

In the case of `CCn1cc(Nc2ncc(Cl)c(N[C@H]3[C@@H](C(N)=O)[C@@H]4C=C[C@H]3C4)n2)cn1` (racemic) [Example 30, (1S,2S,3R,4R)-3-({5-chloro-2-[(1-ethyl-1H-pyrazol-4-yl)amino]pyrimidin-4-yl}amino)bicyclo[2.2.1]hept-5-ene-2-carboxamide and (1R,2R,3S,4S)-3-({5-chloro-2-[(1-ethyl-1H-pyrazol-4-yl)amino]pyrimidin-4-yl}amino)bicyclo[2.2.1]hept-5-ene-2-carboxamide], the inhibition constant Ki at Aurora B and at Aurora A was less than 100 nM in each case.

In the case of `NC(=O)[C@@H]1[C@H](Nc2nc(Nc3cnn(Cc4ccc(Cl)cc4)c3)ncc2Br)[C@H]2C=C[C@@H]1C2` [Example 172, (1S,2S,3R,4R)-3-[(5-bromo-2-{[1-(4-chlorobenzyl)-1H-pyrazol-4-yl]amino}pyrimidin-4-yl)amino]bicyclo[2.2.1]hept-5-ene-2-carboxamide], the Ki on Aurora B and on Aurora A was less than 100 nM throughout.

With `COCCn1cc(Nc2ncc(Br)c(N[C@H]3[C@@H](C(N)=O)[C@@H]4C=C[C@H]3C4)n2)cn1` [Example 106, (1S,2S,3R,4R)-3-[(5-bromo-2-{[1-(2-methoxyethyl)-1H-pyrazol-4-yl]amino}pyrimidin-4-yl)amino]bicyclo[2.2.1]hept-5-ene-2-carboxamide], the inhibitory constant (Ki) on Aurora B and on Aurora A was less than 100 nM throughout.

On to `Cn1cc(Nc2ncc(C(F)(F)F)c(Nc3ccccc3C3(O)CNC3)n2)cn1` [Example 109, 3-[2-({2-[(1-methyl-1H-pyrazol-4-yl)amino]-5-(trifluoromethyl)pyrimidin-4-yl}amino)phenyl]azetidin-3-ol], for which the inhibition constant Ki on Aurora B and on Aurora A was less than 100 nM in each case.

Consider `Cn1cc(Nc2ncc(Cl)c(Nc3ccccc3C3(O)CCC3)n2)cn1` [Example 101, 1-[2-({5-chloro-2-[(1-methyl-1H-pyrazol-4-yl)amino]pyrimidin-4-yl}amino)phenyl]cyclobutanol], for which the inhibition constant Ki at Aurora B and at Aurora A was less than 100 nM in each case.

With `NC(=O)[C@@H]1[C@H](Nc2nc(Nc3cnn(Cc4ccccc4)c3)ncc2Cl)[C@H]2C=C[C@@H]1C2` [Example 144, (1S,2S,3R,4R)-3-({2-[(1-benzyl-1H-pyrazol-4-yl)amino]-5-chloropyrimidin-4-yl}amino)bicyclo[2.2.1]hept-5-ene-2-carboxamide], the Ki on Aurora B and on Aurora A was less than 100 nM in each case.

Take `COc1cccc(CCn2cc(Nc3ncc(Cl)c(N[C@H]4[C@@H](C(N)=O)[C@@H]5C=C[C@H]4C5)n3)cn2)c1` [Example 154, (1S,2S,3R,4R)-3-{[5-chloro-2-({1-[2-(3-methoxyphenyl)ethyl]-1H-pyrazol-4-yl}amino)pyrimidin-4-yl]amino}bicyclo[2.2.1]hept-5-ene-2-carboxamide]: the Ki at Aurora B and on Aurora A was less than 100 nM each time.

As for `CS(=O)(=O)CCn1cc(Nc2ncc(Br)c(N[C@H]3[C@@H](C(N)=O)[C@@H]4C=C[C@H]3C4)n2)cn1` [Example 122, (1S,2S,3R,4R)-3-{[5-bromo-2-({1-[2-(methylsulfonyl)ethyl]-1H-pyrazol-4-yl}amino)pyrimidin-4-yl]amino}bicyclo[2.2.1]hept-5-ene-2-carboxamide], the Ki at Aurora B and on Aurora A was less than 100 nM throughout.

The record behind these values is patent publication US8426408B2, “Pyrimidine inhibitors of kinases” (AbbVie Inc., priority 2009, dated 2013).
